From patent US9572786B2, “Use of capsiate or dihydrocapsidate” (Catholic University Industry Academy Cooperation Foundation, priority 2007, dated 2017)

System: Sprague dawley (SD) rats
Test: Retinal vascular permeability in streptozotocin induced diabetic retinopathy
Type: in vivo, rat
Details: intravitreally injected 1-week after streptozotocin, observed at 3 weeks with dextran FITC
Protocol: Diabetes are induced by performing intraperitoneal injection of 60 mg/kg of streptozotocin (Sigma, St Louis, Mo., USA) into 8-week-old male Sprague dawley (SD) rats (250 g). 3 days later, serum glucose level was measured and rats having serum glucose level of […] and more are selected and used in experiments. Capsiate or capsaicin was intravitreally injected 1-week after the injection of streptozotocin, respectively. 3 weeks after the injection of streptozotocin, 0.5 ml of dextran FITC (25 mg/ml, MW 40K, Sigma, St Louis, Mo., USA) was injected through tail vein of tested rats to imaging retinal vascular pattern. Retinal tissues of the rats are isolated and observed by fluorescent microscopy (Olympus, Tokyo, Japan). The increase of retinal vascular permeability is observed in nonproliferative diabetic retinopathy, proliferative diabetic retinopathy and diabetic macular edema and result from cracks in vascular vessel due to breakdown of blood-retinal barrier (BRB).

SMILES: COc1cc(CNC(=O)CCCC/C=C/C(C)C)ccc1O [Capsaicin, capsaicin, reference compound]
- increment of retinal vascular permeability: does not effect
